Columns and labels:
Assay type in all cases: in vivo
[1] = system: windgrass (Apera spica-venti); experiment: Test B postemergence plant response; settings: Postemergence
Summary of the method: (§1)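 Visual ratings from 0 (no effect) to 100 (complete control), made against controls 13–15 days after treatment, kept in a greenhouse. Compounds were applied postemergence to potted plants at the 1- to 4-leaf stage (2–18 cm).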

[2] = system: canarygrass (Phalaris minor); experiment: Test B postemergence plant response; settings: Postemergence
Summary of the method: as §1

[3] = system: chickweed (Stellaria media); experiment: Test B postemergence plant response; settings: Postemergence
Summary of the method: as §1

[4] = system: velvetleaf (Abutilon theophrasti); experiment: Test B pre-/postemergence plant response
Text: (§2) Seeds of plant species selected from blackgrass (Alopecurus myosuroides), downy bromegrass (Bromus tectorum), green foxtail (Setaria viridis), Italian ryegrass (Lolium multiflorum), wheat (Triticum aestivum), wild oat (Avena fatua), deadnettle (henbit deadnettle, Lamium amplexicaule), galium (catchweed bedstraw, Galium aparine), bermudagrass (Cynodon dactylon), Surinam grass (Brachiaria decumbens), cocklebur (Xanthium strumarium), corn (Zea mays), large crabgrass (Digitaria sanguinalis), woolly cupgrass (Eriochloa villosa), giant foxtail (Setaria faberii), goosegrass (Eleusine indica), johnsongrass (Sorghum halepense), kochia (Kochia scoparia), lambsquarters (Chenopodium album), morningglory (Ipomoea coccinea), nightshade (eastern black nightshade, Solanum ptycanthum), yellow nutsedge (Cyperus esculentus), pigweed (Amaranthus retroflexus), ragweed (common ragweed, Ambrosia elatior), Russian thistle (Salsola kali), soybean (Glycine max), sunflower (common oilseed sunflower, Helianthus annuus) and velvetleaf (Abutilon theophrasti) were planted into a blend of loam soil and sand and treated preemergence with test compounds formulated in a non-phytotoxic solvent mixture which included a surfactant.
(§3) At the same time, plants selected from these crop and weed species and also winter barley (Hordeum vulgare), canarygrass (Phalaris minor), chickweed (Stellaria media) and windgrass (Apera spica-venti) were planted in pots containing Redi-Earth® planting medium (Scotts Company, 14111 Scottslawn Road, Marysville, Ohio 43041) comprising spaghnum peat moss, vermiculite, wetting agent and starter nutrients and treated with postemergence applications of some of the test chemicals formulated in the same manner. Plants ranged in height from 2 to 18 cm (1- to 4-leaf stage) for postemergence treatments.
(§4) Treated plants and controls were maintained in a greenhouse for 13 to 15 days, after which time all treated plants were visually evaluated and compared to controls. Plant response ratings, summarized in Table B, are based on a scale of 0 to 100 where 0 is no effect and 100 is complete control. A dash (-) response means no test result.

[5] = system: johnsongrass (Sorghum halepense); experiment: Test B pre-/postemergence plant response
Text: as §2, §3, §4

[6] = system: cocklebur (Xanthium strumarium); experiment: Test B pre-/postemergence plant response; settings: Postemergence
Text: as §2, §3, §4

[7] = system: goosegrass (Eleusine indica); experiment: Test B pre-/postemergence plant response
Text: as §2, §3, §4

wild oat (Avena fatua) = experiment: Test B pre-/postemergence plant response
Text: as §2, §3, §4

[8] = system: pigweed (Amaranthus retroflexus); experiment: Test B pre-/postemergence plant response
Text: as §2, §3, §4

kochia (Kochia scoparia) = experiment: Test B pre-/postemergence plant response; settings: Postemergence
Text: as §2, §3, §4

soybean (Glycine max) = experiment: Test B pre-/postemergence plant response
Text: as §2, §3, §4

[9] = system: wheat (Triticum aestivum); experiment: Test B pre-/postemergence plant response
Text: as §2, §3, §4

[10] = system: ragweed (common ragweed, Ambrosia elatior); experiment: Test B pre-/postemergence plant response
Text: as §2, §3, §4

[11] = 31 g ai/ha, 0 to 100 scale (0 no effect, 100 complete control)
[12] = 125 g ai/ha, scale 0 to 100 (0 no effect, 100 complete control)
[13] = 250 g ai/ha, scale 0 to 100 (0 no effect, 100 complete control), 13 to 15 days
[14] = Postemergence, 31 g ai/ha, 0 to 100 scale (0 no effect, 100 complete control)
[15] = Postemergence, 125 g ai/ha, scale 0 to 100 (0 no effect, 100 complete control)
[16] = Postemergence, 250 g ai/ha, scale 0 to 100 (0 no effect, 100 complete control), 13 to 15 days
[17] = 62 g ai/ha, scale 0 to 100 (0 no effect, 100 complete control)
[18] = 125 g ai/ha, scale 0 (no effect) to 100 (complete control), 13 to 15 days
[19] = Postemergence, 62 g ai/ha, scale 0 to 100 (0 no effect, 100 complete control)
[20] = Postemergence, 125 g ai/ha, scale 0 (no effect) to 100 (complete control), 13 to 15 days
[21] = Preemergence, 31 g ai/ha, scale 0 to 100 (0 no effect, 100 complete control)
[22] = Preemergence, 62 g ai/ha, scale 0 to 100 (0 no effect, 100 complete control)
[23] = Preemergence, 125 g ai/ha, scale 0 to 100, 0 no effect, 100 complete control
[24] = Preemergence, 250 g ai/ha, 0 to 100 scale

Cc1ccc(Cl)cc1-n1c(-c2cccc(F)c2)ncc(C(=O)C2=C(O)CCCC2=O)c1=O [Compound 184]
90: Plant response rating, Windgrass [1, 12]
30: Plant response rating, Wheat [9, 14]
0: Plant response rating, Kochia (kochia (Kochia scoparia); [11])
85: Plant response rating, Velvetleaf [4, 14]
10: Plant response rating, Kochia (kochia (Kochia scoparia); [13])
70: Plant response rating, Pigweed [8, 14]
100: Plant response rating, Windgrass [1, 13] | Plant response rating, Chickweed [3, 11] | Plant response rating, Chickweed [3, 12] | Plant response rating, Chickweed [3, 13] | Plant response rating, Velvetleaf [4, 15] | Plant response rating, Velvetleaf [4, 16] | Plant response rating, Johnsongrass [5, 14] | Plant response rating, Johnsongrass [5, 15] | Plant response rating, Johnsongrass [5, 16] | Plant response rating, Cocklebur [6, 11] | Plant response rating, Cocklebur [6, 12] | Plant response rating, Cocklebur [6, 13] | Plant response rating, Goosegrass [7, 14] | Plant response rating, Goosegrass [7, 15] | Plant response rating, Goosegrass [7, 16] | Plant response rating, Pigweed [8, 16] | Plant response rating, Soybean (soybean (Glycine max); [15]) | Plant response rating, Soybean (soybean (Glycine max); [16])
80: Plant response rating, Canarygrass [2, 12] | Plant response rating, Oat, Wild (wild oat (Avena fatua); [15])
5: Plant response rating, Kochia (kochia (Kochia scoparia); [12])
55: Plant response rating, Wheat [9, 15]
95: Plant response rating, Canarygrass [2, 13]
60: Plant response rating, Windgrass [1, 11] | Plant response rating, Wheat [9, 16]
40: Plant response rating, Oat, Wild (wild oat (Avena fatua); [14])
45: Plant response rating, Canarygrass [2, 11]
98: Plant response rating, Oat, Wild (wild oat (Avena fatua); [16]) | Plant response rating, Soybean (soybean (Glycine max); [14])
75: Plant response rating, Pigweed [8, 15]

CCc1ccccc1-n1c(-c2ccccc2)ncc(C(=O)C2=C(O)CCCC2=O)c1=O [Compound 255]
75: Plant response rating, Johnsongrass [5, 23] | Plant response rating, Ragweed [10, 22]
0: Plant response rating, Johnsongrass [5, 21] | Plant response rating, Oat, Wild (wild oat (Avena fatua); [21]) | Plant response rating, Oat, Wild (wild oat (Avena fatua); [22]) | Plant response rating, Soybean (soybean (Glycine max); [21]) | Plant response rating, Soybean (soybean (Glycine max); [22]) | Plant response rating, Wheat [9, 21] | Plant response rating, Wheat [9, 22] | Plant response rating, Wheat [9, 23]
100: Plant response rating, Chickweed [3, 18] | Plant response rating, Chickweed [3, 13] | Plant response rating, Velvetleaf [4, 16] | Velvetleaf plant response rating [4, 24] | Ragweed plant response rating [10, 24] | Plant response rating, Goosegrass [7, 23] | Goosegrass plant response rating [7, 24] | Plant response rating, Pigweed [8, 16] | Plant response rating, Pigweed [8, 21] | Plant response rating, Pigweed [8, 22] | Plant response rating, Pigweed [8, 23] | Pigweed plant response rating [8, 24] | Plant response rating, Soybean (soybean (Glycine max); [20]) | Plant response rating, Soybean (soybean (Glycine max); [16])
80: Plant response rating, Windgrass [1, 17] | Plant response rating, Windgrass [1, 18] | Plant response rating, Velvetleaf [4, 21] | Plant response rating, Johnsongrass [5, 14] | Plant response rating, Goosegrass [7, 21] | Plant response rating, Oat, Wild (wild oat (Avena fatua); [19]) | Plant response rating, Pigweed [8, 14] | Soybean plant response rating (soybean (Glycine max); [24]) | Plant response rating, Wheat [9, 16]
85: Plant response rating, Johnsongrass [5, 19] | Plant response rating, Ragweed [10, 23] | Plant response rating, Oat, Wild (wild oat (Avena fatua); [20])
90: Plant response rating, Johnsongrass [5, 20] | Plant response rating, Ragweed [10, 19] | Plant response rating, Goosegrass [7, 14] | Plant response rating, Goosegrass [7, 19] | Plant response rating, Oat, Wild (wild oat (Avena fatua); [16]) | Oat, Wild plant response rating (wild oat (Avena fatua); [24])
65: Plant response rating, Ragweed [10, 21] | Plant response rating, Oat, Wild (wild oat (Avena fatua); [14]) | Plant response rating, Kochia (kochia (Kochia scoparia); [13])
50: Plant response rating, Windgrass [1, 11] | Plant response rating, Canarygrass [2, 11] | Plant response rating, Canarygrass [2, 17] | Plant response rating, Canarygrass [2, 18] | Plant response rating, Ragweed [10, 14] | Plant response rating, Wheat [9, 20]
5: Wheat plant response rating [9, 24]
98: Plant response rating, Chickweed [3, 17] | Plant response rating, Velvetleaf [4, 19] | Plant response rating, Velvetleaf [4, 20] | Plant response rating, Velvetleaf [4, 23] | Johnsongrass plant response rating [5, 24] | Plant response rating, Goosegrass [7, 16] | Plant response rating, Goosegrass [7, 22] | Plant response rating, Pigweed [8, 19] | Plant response rating, Pigweed [8, 20]
15: Plant response rating, Kochia (kochia (Kochia scoparia); [17]) | Plant response rating, Kochia (kochia (Kochia scoparia); [18]) | Plant response rating, Soybean (soybean (Glycine max); [23])
60: Plant response rating, Canarygrass [2, 13] | Plant response rating, Johnsongrass [5, 22] | Plant response rating, Oat, Wild (wild oat (Avena fatua); [23])
35: Plant response rating, Wheat [9, 14]
10: Plant response rating, Kochia (kochia (Kochia scoparia); [11])
95: Plant response rating, Windgrass [1, 13] | Plant response rating, Chickweed [3, 11] | Plant response rating, Velvetleaf [4, 14] | Plant response rating, Velvetleaf [4, 22] | Plant response rating, Johnsongrass [5, 16] | Plant response rating, Ragweed [10, 20] | Plant response rating, Ragweed [10, 16] | Plant response rating, Goosegrass [7, 20] | Plant response rating, Soybean (soybean (Glycine max); [14]) | Plant response rating, Soybean (soybean (Glycine max); [19])
40: Plant response rating, Wheat [9, 19]
